From PubChem BioAssay AID1259407 (Chemical Carcinogenesis Research Information System (CCRIS), 2018)
Active and inactive are the calls of the source. No rule for the calls is given here.

Tested on: CCRIS mutagenicity, Ames/micronucleus/aberration tests
Assay: CCRIS mutagenicity studies
[1] = Test System: AMES SALMONELLA TYPHIMURIUM, Strain/Indicator: TA100, Metabolic Activation: NONE, Method: STANDARD PLATE
[2] = Test System: AMES SALMONELLA TYPHIMURIUM, Strain/Indicator: TA98, Metabolic Activation: NONE, Method: STANDARD PLATE
[3] = Test System: AMES SALMONELLA TYPHIMURIUM, Strain/Indicator: TA98, Metabolic Activation: RAT, LIVER, S-9, AROCLOR 1254, Method: STANDARD PLATE
[4] = Test System: AMES SALMONELLA TYPHIMURIUM, Strain/Indicator: TA100, Metabolic Activation: RAT, LIVER, S-9, AROCLOR 1254, Method: STANDARD PLATE
[5] = Test System: AMES SALMONELLA TYPHIMURIUM, Strain/Indicator: TA102, Metabolic Activation: NONE, Method: STANDARD PLATE
[6] = Test System: AMES SALMONELLA TYPHIMURIUM, Strain/Indicator: TA1535, Metabolic Activation: NONE, Method: STANDARD PLATE
[7] = Test System: AMES SALMONELLA TYPHIMURIUM, Strain/Indicator: TA1535, Metabolic Activation: RAT, LIVER, S-9, AROCLOR 1254, Method: STANDARD PLATE
[8] = Test System: AMES SALMONELLA TYPHIMURIUM, Strain/Indicator: TA1537, Metabolic Activation: NONE, Method: STANDARD PLATE
[9] = Test System: E. COLI, Strain/Indicator: WP2 UVRA, Metabolic Activation: NONE, Method: STANDARD PLATE

Q: Which mutagenic call (Test System: AMES SALMONELLA TYPHIMURIUM, Strain/Indicator: TA98, Metabolic Activation: RAT, LIVER, S-9, PHENOBARBITAL, Method: STANDARD PLATE) does the source give for `COc1cc(OC)c2nc3occc3c(OC)c2c1` here?
A: Its mutagenic call is “active; positive”.

Q: What about the mutagenic call (Test System: AMES SALMONELLA TYPHIMURIUM, Strain/Indicator: TA100, Metabolic Activation: RAT, LIVER, S-9, PHENOBARBITAL, Method: STANDARD PLATE) of the same compound?
A: The mutagenic call was “active; positive”.

Q: Which mutagenic call [1] does the source give for `Cc1ccc(C(=O)ON(OCc2ccccc2)C(=O)c2ccccc2)cc1` here?
A: The mutagenic call was “active; positive”.

Q: What about the mutagenic call (Test System: AMES SALMONELLA TYPHIMURIUM, Strain/Indicator: TA100, Metabolic Activation: RAT, S-9, AROCLOR, Method: STANDARD PLATE) of the same compound?
A: Its mutagenic call is “active; positive”.

Q: What does the source list for `Cc1cc(N)c(C)c2c1[nH]c1ccc(O)cc12`?
A: mutagenic call [2]: inactive; negative; mutagenic call (Test System: AMES SALMONELLA TYPHIMURIUM, Strain/Indicator: TA98, Metabolic Activation: RAT LIVER S-9, AROCLOR 1254, Method: STANDARD PLATE): active; positive; mutagenic call [1]: inactive; negative; mutagenic call (Test System: AMES SALMONELLA TYPHIMURIUM, Strain/Indicator: TA100, Metabolic Activation: RAT LIVER S-9, AROCLOR 1254, Method: STANDARD PLATE): inactive; negative

Q: With `Cc1ccc2c(c1)C(C)c1ccccc1-2` (stereo not drawn) as the compound, how does the mutagenic call [3] read?
A: The mutagenic call was “inactive; negative”.

Q: And the mutagenic call [4]?
A: Its mutagenic call is “active; positive”.

Q: Which mutagenic call (Test System: CHINESE HAMSTER V-79, Strain/Indicator: V-79/8-AZAGUANINE, Metabolic Activation: RAT, LIVER, S-9, AROCLOR, Method: STANDARD PLATE) does the source give for `Cc1ccc2cc3c4c(ccc3c3c2c1C[C@H]3O)[C@@H](O)[C@H](O)C=C4` here?
A: The mutagenic call was “active; positive”.

Q: What does the source list for `Cc1cc2ccccc2c2ccc3ccccc3c12`?
A: mutagenic call (End Point: Chinese hamster lung fibroblasts, Strain/Indicator: V79MZ/HPRT/6-Thioguanidine, Metabolic Activation: Stably transfected human CYP1A1 (hCYP1A1), Method: Preincubation): active; positive. highly potent. protection against mutagenicity by human glutathione s-; mutagenic call (End Point: Chinese hamster lung fibroblasts, Strain/Indicator: V79MZ/HPRT/6-Thioguanidine, Metabolic Activation: Stably transfected human CYP1B1 (hCYP1B1), Method: Preincubation): active; positive. highly potent. protection against mutagenicity by human glutathione s-; mutagenic call (Test System: AMES SALMONELLA TYPHIMURIUM, Strain/Indicator: TA98, Metabolic Activation: NONE, Method: PREINCUBATION): inactive; negative; mutagenic call [3]: active; positive; mutagenic call (Test System: AMES SALMONELLA TYPHIMURIUM, Strain/Indicator: TA98, Metabolic Activation: RAT, LIVER, S-9, Method: PREINCUBATION): active; positive; mutagenic call (Test System: AMES SALMONELLA TYPHIMURIUM, Strain/Indicator: TA100, Metabolic Activation: NONE, Method: PREINCUBATION): inactive; negative; mutagenic call [1]: inactive; negative; mutagenic call (Test System: AMES SALMONELLA TYPHIMURIUM, Strain/Indicator: TA100, Metabolic Activation: RAT, LIVER, MICROSOMES, 5-METHYLCHRYSENE, Method: STANDARD PLATE): inactive; negative; mutagenic call (Test System: AMES SALMONELLA TYPHIMURIUM, Strain/Indicator: TA100, Metabolic Activation: RAT, LIVER, MICROSOMES, AROCLOR 1254, Method: STANDARD PLATE): active; positive; mutagenic call (Test System: AMES SALMONELLA TYPHIMURIUM, Strain/Indicator: TA100, Metabolic Activation: RAT, LIVER, MICROSOMES, Method: STANDARD PLATE): inactive; negative; mutagenic call [4]: active; positive; mutagenic call (Test System: AMES SALMONELLA TYPHIMURIUM, Strain/Indicator: TA100, Metabolic Activation: RAT, LIVER, S-9, Method: PREINCUBATION): active; positive

Q: Which mutagenic call (Test System: AMES SALMONELLA TYPHIMURIUM, Strain/Indicator: TA100, Metabolic Activation: S-9, Method: PREINCUBATION) does the source give for `NS(=O)(=O)c1cccc2cccnc12` here?
A: Its mutagenic call is “inactive; negative”.

Q: What does the source list for `CC1(C)CC(N)CC(C)(C)N1[O]`?
A: mutagenic call [2]: active; positive; mutagenic call (Test System: AMES SALMONELLA TYPHIMURIUM, Strain/Indicator: TA98, Metabolic Activation: RAT LIVER S-9, PCB, Method: STANDARD PLATE): inactive; negative; mutagenic call [1]: active; positive; mutagenic call (Test System: AMES SALMONELLA TYPHIMURIUM, Strain/Indicator: TA100, Metabolic Activation: RAT LIVER S-9, PCB, Method: STANDARD PLATE): inactive; negative; mutagenic call [5]: inactive; negative

Q: With `C#CC(OC(=O)C1C(C=C(C)C)C1(C)C)/C(C)=C/CC` (stereo not drawn) as the compound, how does the mutagenic call (Test System: AMES SALMONELLA TYPHIMURIUM, Strain/Indicator: TA98, Metabolic Activation: NONE, Method: MICROSUSPENSION) read?
A: The mutagenic call was “inactive; negative”.

Q: And the mutagenic call (Test System: AMES SALMONELLA TYPHIMURIUM, Strain/Indicator: TA98, Metabolic Activation: S-9, Method: MICROSUSPENSION)?
A: Its mutagenic call is “inactive; negative”.

Q: What about the mutagenic call (Test System: AMES SALMONELLA TYPHIMURIUM, Strain/Indicator: TA100, Metabolic Activation: NONE, Method: MICROSUSPENSION) of the same compound?
A: The mutagenic call was “inactive; negative”.

Q: And the mutagenic call (Test System: AMES SALMONELLA TYPHIMURIUM, Strain/Indicator: TA100, Metabolic Activation: S-9, Method: MICROSUSPENSION)?
A: The mutagenic call was “inactive; negative”.

Q: What does the source list for `CN(C)C(=O)c1nc(CNC(=O)CN)n(-c2ccc(Cl)cc2C(=O)c2ccccc2Cl)n1`?
A: mutagenic call [2]: inactive; negative; mutagenic call [3]: inactive; negative; mutagenic call [1]: inactive; negative; mutagenic call [4]: inactive; negative; mutagenic call [5]: inactive; negative; mutagenic call (Test System: AMES SALMONELLA TYPHIMURIUM, Strain/Indicator: TA102, Metabolic Activation: RAT, LIVER, S-9, AROCLOR 1254, Method: STANDARD PLATE): inactive; negative; mutagenic call [6]: inactive; negative; mutagenic call [7]: inactive; negative; mutagenic call [8]: inactive; negative; mutagenic call (Test System: AMES SALMONELLA TYPHIMURIUM, Strain/Indicator: TA1537, Metabolic Activation: RAT, LIVER, S-9, AROCLOR 1254, Method: STANDARD PLATE): inactive; negative; mutagenic call [9]: inactive; negative; mutagenic call (Test System: E. COLI, Strain/Indicator: WP2 UVRA, Metabolic Activation: RAT, LIVER, S-9, AROCLOR 1254, Method: STANDARD PLATE): inactive; negative

Q: `CC(C)=CCC/C(C)=C/CC/C(C)=C/C(=O)OCC(=O)[C@@]1(O)CC[C@H]2[C@@H]3CCC4=CC(=O)C=C[C@]4(C)[C@H]3[C@@H](O)C[C@@]21C` was tested. Which mutagenic call [2] did it give?
A: The mutagenic call was “inactive; negative”.

Q: And the mutagenic call (Test System: AMES SALMONELLA TYPHIMURIUM, Strain/Indicator: TA98, Metabolic Activation: RAT, LIVER, S-9, PHENOBARBITAL AND 5,6-BENZOFLAVONE, Method: STANDARD PLATE)?
A: The mutagenic call was “inactive; negative”.

Q: What about the mutagenic call [1] of the same compound?
A: The mutagenic call was “inactive; negative”.

Q: And the mutagenic call (Test System: AMES SALMONELLA TYPHIMURIUM, Strain/Indicator: TA100, Metabolic Activation: RAT, LIVER, S-9, PHENOBARBITAL AND 5,6-BENZOFLAVONE, Method: STANDARD PLATE)?
A: The mutagenic call was “inactive; negative”.

Q: What about the mutagenic call [6] of the same compound?
A: The mutagenic call was “inactive; negative”.

Q: And the mutagenic call (Test System: AMES SALMONELLA TYPHIMURIUM, Strain/Indicator: TA1535, Metabolic Activation: RAT, LIVER, S-9, PHENOBARBITAL AND 5,6-BENZOFLAVONE, Method: STANDARD PLATE)?
A: The mutagenic call was “inactive; negative”.

Q: And the mutagenic call [8]?
A: Its mutagenic call is “inactive; negative”.

Q: And the mutagenic call (Test System: AMES SALMONELLA TYPHIMURIUM, Strain/Indicator: TA1537, Metabolic Activation: RAT, LIVER, S-9, PHENOBARBITAL AND 5,6-BENZOFLAVONE, Method: STANDARD PLATE)?
A: Its mutagenic call is “inactive; negative”.

Q: And the mutagenic call [9]?
A: The mutagenic call was “inactive; negative”.

Q: And the mutagenic call (Test System: E. COLI, Strain/Indicator: WP2 UVRA, Metabolic Activation: RAT, LIVER, S-9, PHENOBARBITAL AND 5,6-BENZOFLAVONE, Method: STANDARD PLATE)?
A: Its mutagenic call is “inactive; negative”.

Q: Which mutagenic call (Test System: AMES SALMONELLA TYPHIMURIUM, Strain/Indicator: TA100, Metabolic Activation: S-9, Method: STANDARD PLATE) does the source give for `Cc1ccc2c(c1)c(=NC(=O)CCCl)sn2C(=O)CCCl` here?
A: Its mutagenic call is “inactive; negative”.

Q: How did the mutagenic call [7] turn out when `c1cc[c]([Sb]([c]2ccccc2)[c]2ccccc2)cc1` was run?
A: Its mutagenic call is “active; positive”.

Q: What about the mutagenic call (Test System: Mouse lymphoma, Strain/Indicator: L5178Y (tk+/tk-), Metabolic Activation: None, Method: Suspension/plate) of the same compound?
A: The mutagenic call was “inactive; negative”.

Q: And the mutagenic call (Test System: Mouse lymphoma, Strain/Indicator: L5178Y (tk+/tk-), Metabolic Activation: Rat, Liver, S-9, Aroclor 1254, Method: Suspension/plate)?
A: The mutagenic call was “active; equivocal (previous evaluation positive)”.

Q: What does the source list for `O=[N+]([O-])c1cc2cc3ccc4cccc5ccc(c2o1)c3c45`?
A: mutagenic call (Test System: AMES SALMONELLA TYPHIMURIUM, Strain/Indicator: TA98(NR), Metabolic Activation: NONE, Method: STANDARD PLATE): active; positive; mutagenic call (Test System: AMES SALMONELLA TYPHIMURIUM, Strain/Indicator: TA98(NR), Metabolic Activation: RAT, LIVER, S-9, AROCLOR 1254, Method: STANDARD PLATE): active; positive; mutagenic call [2]: active; positive; mutagenic call [3]: active; positive
